PubChem BioAssay AID2060617 (Molecular Pharmacology Branch, DTP, NCI, 2025)

Tested on: 485368-065-R4-J2-PDC spheroids with HUVEC/MSC, viability
Assay: Anticancer human tumor 485368-065-R4-J2-PDC patient-derived pancreatic carcinoma cell line growth inhibition [CLK]
Conditions: for IC50: curve of first compound; for viability, T/C: stronger effect = lower value
Method in brief: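 Patient-derived tumor cells grown as complex spheroids with HUVEC endothelial cells and mesenchymal stem cells, treated with drug combinations. Concentrations descend in half-log steps from near clinical Cmax, or from 10 microM if Cmax unknown.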

[1] = second compound 0.0316 µM, first compound 0.0316 µM
[2] = second compound 0.0316 µM, first compound 0.1 µM
[3] = second compound 0.0316 µM, first compound 0.316 µM
[4] = second compound 0.0316 µM, first compound 1 µM
[5] = second compound 0.0316 µM, first compound 3.16 µM
[6] = second compound 0.0316 µM, first compound 10 µM
[7] = second compound 0.1 µM, first compound 0.0316 µM
[8] = second compound 0.1 µM, first compound 0.1 µM
[9] = second compound 0.1 µM, first compound 0.316 µM
[10] = second compound 0.1 µM, first compound 1 µM
[11] = second compound 0.1 µM, first compound 3.16 µM
[12] = second compound 0.1 µM, first compound 10 µM
[13] = second compound 0.316 µM, first compound 0.0316 µM
[14] = second compound 0.316 µM, first compound 0.1 µM
[15] = second compound 0.316 µM, first compound 0.316 µM
[16] = second compound 0.316 µM, first compound 1 µM
[17] = second compound 0.316 µM, first compound 3.16 µM
[18] = second compound 0.316 µM, first compound 10 µM
[19] = second compound 1 µM, first compound 0.0316 µM
[20] = second compound 1 µM, first compound 0.1 µM
[21] = second compound 1 µM, first compound 0.316 µM
[22] = second compound 1 µM, first compound 1 µM
[23] = second compound 1 µM, first compound 3.16 µM
[24] = second compound 1 µM, first compound 10 µM
[25] = second compound 3.16 µM, first compound 0.0316 µM
[26] = second compound 3.16 µM, first compound 0.1 µM
[27] = second compound 3.16 µM, first compound 0.316 µM
[28] = second compound 3.16 µM, first compound 1 µM
[29] = second compound 3.16 µM, first compound 3.16 µM
[30] = second compound 3.16 µM, first compound 10 µM
[31] = second compound 10 µM, first compound 0.0316 µM
[32] = second compound 10 µM, first compound 0.1 µM
[33] = second compound 10 µM, first compound 0.316 µM
[34] = second compound 10 µM, first compound 1 µM
[35] = second compound 10 µM, first compound 3.16 µM
[36] = second compound 10 µM, first compound 10 µM
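Note: spheroids exposed to compounds for seven days.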
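Throughout, for viability, T/C: 100% = DMSO vehicle control wells.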

CC(=O)O[C@H]1C(=O)[C@@]2(C)[C@H]([C@H](OC(=O)c3ccccc3)[C@]3(O)C[C@H](OC(=O)[C@H](O)[C@@H](NC(=O)c4ccccc4)c4ccccc4)C(C)=C1C3(C)C)[C@]1(OC(C)=O)CO[C@@H]1C[C@@H]2O + CN1CCN(c2cc(C(=O)Nc3cc4cc(-c5cnn(C)c5)ccc4cn3)ccn2)CC1
IC50 (second compound 0.0316 µM): < 31.6 nM | IC50 (second compound 0.1 µM): < 31.6 nM | IC50 (second compound 0.316 µM): < 31.6 nM | IC50 (second compound 1 µM): < 31.6 nM | IC50 (second compound 3.16 µM): < 31.6 nM | IC50 (second compound 10 µM): < 31.6 nM | viability, T/C [1]: 49.1% | viability, T/C [2]: 41.3% | viability, T/C [3]: 38.5% | viability, T/C [4]: 46.2% | viability, T/C [5]: 39.5% | viability, T/C [6]: 55.3% | viability, T/C [7]: 37.3% | viability, T/C [8]: 39.4% | viability, T/C [9]: 30.8% | viability, T/C [10]: 36% | viability, T/C [11]: 36.8% | viability, T/C [12]: 45.2% | viability, T/C [13]: 30.7% | viability, T/C [14]: 28.5% | viability, T/C [15]: 28.2% | viability, T/C [16]: 25.4% | viability, T/C [17]: 28.7% | viability, T/C [18]: 35.5% | viability, T/C [19]: 0.77% | viability, T/C [20]: 0.76% | viability, T/C [21]: 0.7% | viability, T/C [22]: 1.78% | viability, T/C [23]: 1% | viability, T/C [24]: 1.89% | viability, T/C [25]: 2.34% | viability, T/C [26]: 2.46% | viability, T/C [27]: 1.31% | viability, T/C [28]: 2.13% | viability, T/C [29]: 1.56% | viability, T/C [30]: 3.41% | viability, T/C [31]: 1.54% | viability, T/C [32]: 2.06% | viability, T/C [33]: 2.24% | viability, T/C [34]: 1.65% | viability, T/C [35]: 2.6% | viability, T/C [36]: 1.89%

COc1cccc2c1C(=O)c1c(O)c3c(c(O)c1C2=O)CC(O)(C(=O)CO)CC3OC1CC(N)C(O)C(C)O1 (centres undefined) + CN1CCN(c2cc(C(=O)Nc3cc4cc(-c5cnn(C)c5)ccc4cn3)ccn2)CC1
IC50 (second compound 0.0316 µM): 340 nM | IC50 (second compound 0.1 µM): 215 nM | IC50 (second compound 0.316 µM): 86.9 nM | IC50 (second compound 1 µM): < 31.6 nM | IC50 (second compound 3.16 µM): < 31.6 nM | IC50 (second compound 10 µM): < 31.6 nM | viability, T/C [1]: 97.5% | viability, T/C [2]: 91.9% | viability, T/C [3]: 51.1% | viability, T/C [4]: 22.8% | viability, T/C [5]: 6.06% | viability, T/C [6]: 20.1% | viability, T/C [7]: 95.9% | viability, T/C [8]: 81.3% | viability, T/C [9]: 34.5% | viability, T/C [10]: 13.1% | viability, T/C [11]: 5.58% | viability, T/C [12]: 20.2% | viability, T/C [13]: 69.8% | viability, T/C [14]: 47.2% | viability, T/C [15]: 12.7% | viability, T/C [16]: 6.03% | viability, T/C [17]: 8.55% | viability, T/C [18]: 26.6% | viability, T/C [19]: 0.88% | viability, T/C [20]: 0.73% | viability, T/C [21]: 1.56% | viability, T/C [22]: 5.86% | viability, T/C [23]: 12.6% | viability, T/C [24]: 28.8% | viability, T/C [25]: 1.17% | viability, T/C [26]: 1.22% | viability, T/C [27]: 2.37% | viability, T/C [28]: 6.61% | viability, T/C [29]: 14.8% | viability, T/C [30]: 30.9% | viability, T/C [31]: 1.73% | viability, T/C [32]: 1.28% | viability, T/C [33]: 2.28% | viability, T/C [34]: 8.69% | viability, T/C [35]: 14.6% | viability, T/C [36]: 27.2%
